These results are taken from PubChem BioAssay (NCI).

What all share (test): NCI tumour cell line growth inhibition, 48 h
The test system of test [1] is P388 leukemia.
Test [2] relates to SN12K1 renal.
The subject of test [3] is P388/ADR leukemia.
In test [4] the test system is HS 578T breast.
Test [5] has as its system BT-549 breast.
Test [6] has as its system T-47D breast.
Test [7] deals with MDA-N.
For test [8], the system named is M14 melanoma.
The subject of test [9] is SR leukemia.
Test [10] has as its system LXFL 529 NSCLC.
Test [11] relates to 786-0 renal.
For test [12], the system named is RXF-631 renal.

Molecules are shown by their SMILES.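 Five concentrations, 48 hours, 96-well plates. At the TGI there is no net growth.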 A value given as a limit tells only on which side of the number the result lay.

In the case of `CN(C)C(=O)OCOC(=O)N(C)C`, the TGI in test [1], in test [2] and in test [3] was > 100 µM in each case.

Take `COc1ccnc2c1C(=O)c1nc3ccccc3c3ccnc-2c13`: the TGI in [4] amounted to 6.44 µM; in test [5] it was 1.44 µM; in [6], 1.34 µM; in [7], 0.904 µM; in test [8] it was 0.272 µM.

As for `CCOC(=O)CC1CCN(C(=O)c2ccccc2)C2Cc3c([nH]c4ccccc34)C12C[N+](=O)[O-]` (configuration not stated), the TGI in [4], in test [5], in test [6], in [7], in [9] and in test [8] was > 100 µM in each case.

In the case of `CCOC(=O)c1csc(NC(=O)C(C)N2CCCCC2)n1` (configuration not stated), the TGI in test [6], in test [7] and in test [8] was > 100 µM throughout.

`OCC1OC(n2cnc3c2NC=NC[C@H]3O)C(O)C1O` (some centres not stated): the TGI in test [1], in test [2] and in test [3] was > 450 µM each time.

Turning to `O=c1c(-c2ccccc2)c(SCCCN2CCN(c3cccc(Cl)c3)CC2)n(-c2ccccc2)c(=S)n1-c1ccccc1`, the TGI in test [4], in test [5] and in test [9] was > 100 µM each time.

Consider `CC(=O)OCC1OC(Nc2ncc(-c3ccc(C)cc3)s2)C(OC(C)=O)C(OC(C)=O)C1OC(C)=O` (configuration not stated), for which the TGI in test [1] was 72.5 µM; in test [2], > 100 µM; in test [3], > 94.1 µM.

With `CCCCN1C=CN2c3nc4cc(C)c(C)cc4n3C(C(=O)OC)=C(C(=O)OC)C12` (configuration not stated), the TGI in test [9], in test [8] and in test [10] was > 100 µM each time.

Regarding `O=C1NC(=O)C(CCO)(c2ccccc2)C(=O)N1`, the TGI in test [1] and in test [2] was > 100 µM throughout.

Take `C=CCn1c(=O)n(CC=C)c(=O)n(CC=C)c1=O`: the TGI in test [8], in [10] and in [11] was > 100 µM throughout.

Consider `COC(=O)C1OC(Oc2cc(O)c3c(=O)cc(-c4ccc(O)cc4)oc3c2)C(O)C(O)C1O` (configuration not stated), for which the TGI in test [1], in [2] and in test [3] was > 100 µM in each case.

Consider `COC(=O)c1ccc(/C=C2\N=C(C)OC2=O)cc1`, for which the TGI in [12], in test [8] and in test [10] was > 100 µM throughout.

`CN(C)C(=O)NCCN1CCCCCc2ccccc21`: the TGI in [4], in [6], in test [7], in test [9] and in test [8] was > 100 µM in each case.

Regarding `O=C(CC(c1ccccc1)N1CCCCC1)c1ccccc1` (configuration not stated), the TGI is 70.5 µM in test [4]; 34.8 µM in [5]; 37.6 µM in test [6]; 27.3 µM in test [7]; 6.15 µM in [9]; 42.3 µM in test [8]. In [11], this compound registered a TGI of 25.9 µM.
